Results taken from the supplement of paper PMC10307832.

Legend:
Assay in all cases: relative viability (nuclei count vs DMSO), 5 days (fraction); higher = more cells survive
Linsitinib + Pemetrexed = compound: C[C@]1(O)C[C@@H](c2nc(-c3ccc4ccc(-c5ccccc5)nc4c3)c3c(N)nccn32)C1 [Linsitinib] + Nc1nc2[nH]cc(CCc3ccc(C(=O)N[C@@H](CCC(=O)O)C(=O)O)cc3)c2c(=O)[nH]1 [Pemetrexed] (partner 0.2 µM)
Method in brief: (§1)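 Relative viability was taken as the ratio of nuclei in treated wells to nuclei in vehicle wells. Lung cancer cell lines in 1536-well plates received compounds by pin tool one day after seeding, either one drug alone or a fixed anchor-drug dose plus five library-drug doses (not always all listed) in √10 steps. Nuclei were counted on 4× images after 5 days of treatment, and values are medians of duplicate plates.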

Linsitinib + Bortezomib = compound: C[C@]1(O)C[C@@H](c2nc(-c3ccc4ccc(-c5ccccc5)nc4c3)c3c(N)nccn32)C1 [Linsitinib] + CC(C)C[C@H](NC(=O)[C@H](Cc1ccccc1)NC(=O)c1cnccn1)B(O)O [Bortezomib] (partner 0.002 µM)
Method in brief: as §1

Ispinesib + Olaparib = compound: Cc1ccc(C(=O)N(CCCN)[C@@H](c2nc3cc(Cl)ccc3c(=O)n2Cc2ccccc2)C(C)C)cc1 [Ispinesib] + O=C(c1cc(Cc2n[nH]c(=O)c3ccccc23)ccc1F)N1CCN(C(=O)C2CC2)CC1 [Olaparib] (partner 8 µM)
Method in brief: as §1

Ispinesib + Crizotinib = compound: Cc1ccc(C(=O)N(CCCN)[C@@H](c2nc3cc(Cl)ccc3c(=O)n2Cc2ccccc2)C(C)C)cc1 [Ispinesib] + C[C@@H](Oc1cc(-c2cnn(C3CCNCC3)c2)cnc1N)c1c(Cl)ccc(F)c1Cl [Crizotinib] (partner 1 µM)
Method in brief: as §1

| Cell Line | relative viability (Linsitinib + Pemetrexed; first compound 0.01 µM) | relative viability (Linsitinib + Pemetrexed; first compound 0.03162 µM) | relative viability (Linsitinib + Pemetrexed; first compound 0.1 µM) | relative viability (Linsitinib + Pemetrexed; first compound 0.3162 µM) | relative viability (Linsitinib + Pemetrexed; first compound 1 µM) | relative viability (Linsitinib + Bortezomib; first compound 0.01 µM) | relative viability (Linsitinib + Bortezomib; first compound 0.03162 µM) | relative viability (Linsitinib + Bortezomib; first compound 0.1 µM) | relative viability (Linsitinib + Bortezomib; first compound 0.3162 µM) | relative viability (Linsitinib + Bortezomib; first compound 1 µM) | relative viability (Ispinesib + Olaparib; first compound 0.001 µM) | relative viability (Ispinesib + Olaparib; first compound 0.003162 µM) | relative viability (Ispinesib + Olaparib; first compound 0.01 µM) | relative viability (Ispinesib + Olaparib; first compound 0.03162 µM) | relative viability (Ispinesib + Olaparib; first compound 0.1 µM) | relative viability (Ispinesib + Crizotinib; first compound 0.001 µM) | relative viability (Ispinesib + Crizotinib; first compound 0.003162 µM) | relative viability (Ispinesib + Crizotinib; first compound 0.01 µM) | relative viability (Ispinesib + Crizotinib; first compound 0.03162 µM) | relative viability (Ispinesib + Crizotinib; first compound 0.1 µM) |
| --- | --- | --- | --- | --- | --- | --- | --- | --- | --- | --- | --- | --- | --- | --- | --- | --- | --- | --- | --- | --- |
| PC-14 | 0.137 | 0.0865 | 0.16 | 0.121 | 0.148 | 0.792 | 0.762 | 1.02 | 0.923 | 0.767 | 0.27 | 0.141 | 0.0942 | 0.0729 | 0.144 | 0.967 | 0.971 | 1.07 | 0.873 | 0.232 |
| HCC-78 |  | 0.897 | 0.913 | 0.882 | 0.925 | 0.511 | 0.645 | 0.507 | 0.525 | 0.395 | 0.876 | 0.82 | 0.887 | 0.704 | 0.59 | 0.348 | 0.341 | 0.438 |  | 0.272 |
| NCI-H1666 | 0.823 | 0.625 | 0.83 | 0.722 | 0.741 | 0.675 | 0.798 | 0.774 | 0.348 | 0.308 | 0.756 | 0.801 | 0.702 | 0.713 | 0.663 | 0.952 | 1.12 | 0.948 | 0.794 | 0.293 |
| COR-L 105 | 0.963 | 1.1 | 1.23 | 0.771 | 0.984 | 0.821 | 0.619 | 0.785 | 0.389 | 0.501 | 0.578 | 0.667 | 0.579 | 0.411 | 0.51 | 0.721 | 0.759 | 0.47 | 0.263 | 0.411 |
